Measurements published in BindingDB's records for patent US20250042850 (Athos Therapeutics, 2025).

Experiments:
Assay in all cases: Cytochrome P450 Inhibition of VNN1 Inhibitors
Cytochrome P450 1A2 = target: T1, Cytochrome P450 1A2 (Homo sapiens, UniProt P05177)
T1 sequence (P05177 whole entry): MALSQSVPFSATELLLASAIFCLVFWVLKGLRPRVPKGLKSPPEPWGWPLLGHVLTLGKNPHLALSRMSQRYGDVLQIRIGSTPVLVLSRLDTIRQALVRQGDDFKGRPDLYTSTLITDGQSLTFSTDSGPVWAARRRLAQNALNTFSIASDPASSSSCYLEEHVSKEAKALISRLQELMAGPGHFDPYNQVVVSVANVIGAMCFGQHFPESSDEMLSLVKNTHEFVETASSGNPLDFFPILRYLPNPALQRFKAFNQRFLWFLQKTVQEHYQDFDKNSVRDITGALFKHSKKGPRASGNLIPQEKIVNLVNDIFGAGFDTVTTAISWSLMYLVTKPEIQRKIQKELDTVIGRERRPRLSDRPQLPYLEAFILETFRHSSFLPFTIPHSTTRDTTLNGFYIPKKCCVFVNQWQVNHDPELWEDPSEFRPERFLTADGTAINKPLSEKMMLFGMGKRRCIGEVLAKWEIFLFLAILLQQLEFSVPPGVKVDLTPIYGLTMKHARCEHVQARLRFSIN
Protocol: (§1) Table 3 and 4: The cocktail was incubated in human liver microsome with NADPH regenerating system (NRS) in a shaking bath at 37±2° C. The formation of specific metabolites was monitored by LC/MS/MS. Test compound was added to the cocktail-liver microsome mixture at varying concentrations and its effect on cytochrome P450 activity was determined by analyzing the rate of specific metabolite formation. The percent inhibition was calculated and plotted with reference to the concentration, and the IC50 value for inhibition was derived by fitting the data with a standard sigmoidal dose-response equation via MLA “Quest Graph™ ED50 Calculator.” AAT Bioquest, Inc, 17 Sep. 2020, aatbio.com/tools/ed50-calculator. […] The reliability of the inhibition assay was established by confirming the inhibition of known inhibitors on different P450 enzymes.

Cytochrome P450 2C19 = Cytochrome P450 2C19 (Homo sapiens, UniProt P33261)
Protocol: as §1

Cytochrome P450 2C9 = Cytochrome P450 2C9 (Homo sapiens, UniProt P11712)
Protocol: as §1

Chain of Cytochrome P450 2C19 (P33261 whole entry): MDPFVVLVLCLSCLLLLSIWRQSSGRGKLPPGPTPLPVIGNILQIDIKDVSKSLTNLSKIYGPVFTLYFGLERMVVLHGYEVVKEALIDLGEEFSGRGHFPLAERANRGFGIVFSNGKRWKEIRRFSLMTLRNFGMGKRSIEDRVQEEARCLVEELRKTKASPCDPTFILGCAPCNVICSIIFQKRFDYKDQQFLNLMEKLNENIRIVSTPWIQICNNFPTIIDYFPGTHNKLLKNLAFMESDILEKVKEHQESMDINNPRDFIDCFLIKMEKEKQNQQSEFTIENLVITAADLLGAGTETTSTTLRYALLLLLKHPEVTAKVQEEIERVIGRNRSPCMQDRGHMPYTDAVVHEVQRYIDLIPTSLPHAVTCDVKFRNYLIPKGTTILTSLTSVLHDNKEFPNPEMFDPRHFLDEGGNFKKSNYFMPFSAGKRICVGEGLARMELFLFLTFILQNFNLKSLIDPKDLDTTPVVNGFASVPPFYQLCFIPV
Chain of Cytochrome P450 2C9 (P11712 whole entry): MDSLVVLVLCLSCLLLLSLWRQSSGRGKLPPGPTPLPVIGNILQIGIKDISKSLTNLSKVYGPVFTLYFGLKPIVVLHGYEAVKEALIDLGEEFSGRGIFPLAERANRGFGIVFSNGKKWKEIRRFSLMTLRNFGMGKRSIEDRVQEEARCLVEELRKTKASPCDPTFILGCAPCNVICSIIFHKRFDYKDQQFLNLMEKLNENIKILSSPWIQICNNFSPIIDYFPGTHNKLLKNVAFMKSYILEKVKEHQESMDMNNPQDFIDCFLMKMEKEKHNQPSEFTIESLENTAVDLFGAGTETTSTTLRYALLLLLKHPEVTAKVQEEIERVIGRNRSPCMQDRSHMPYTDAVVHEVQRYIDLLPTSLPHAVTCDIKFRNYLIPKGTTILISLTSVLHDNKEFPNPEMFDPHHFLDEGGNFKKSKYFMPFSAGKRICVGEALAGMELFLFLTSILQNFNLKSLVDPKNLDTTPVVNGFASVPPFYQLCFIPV

## CC(C)(CO)[C@@H](O)C(=O)n1ccc(C(=O)N2CCCC2)c1 [US20250042850, Compound 10]
Cytochrome P450 1A2
  IC50: > 100 µM
Cytochrome P450 2C19
  IC50: 62.6 µM
Cytochrome P450 2C9
  IC50: > 100 µM
